According to US10058545B2, “Method of treating pulmonary arterial hypertension” (Cipla Limited, priority 2016, dated 2018):

Experiments:
[1] = system: rats with monocrotaline induced pulmonary arterial hypertension; assay: Monocrotaline rat PAH efficacy model: terminal hemodynamics, heart/lung weights; conditions: for Body Weight / HR / HW/BW / Heart Weight / LV Weight / Lung Weight / MAP / Mean PAP / RV Weight / RV/BW / RV/LV + S (Fulton's Index) / Systolic PAP: Day 28 after MCT, Mean ± SEM
Description: The studies were conducted for hemodynamic evaluation of cinitpride in anesthetized sprague dawley rats treated with monocrotaline (“MCT”) to induce pulmonary arterial hypertension. Sildenafil was used as an internal control to compare the effects of cinitapride.
The effects of cinitapride were evaluated in rats with monocrotaline induced pulmonary arterial hypertension using sildenafil as standard care treatment. Male Sprague-Dawley rats were orally administered vehicle cinitapride (0.3 or 0.9 mg/kg total daily dose, divided into a BID regimen given every day for 28 days starting on Day 1), or sildenafil (30 mg/kg, administered twice daily) (n=10 in each group). Rats received a single injection of monocrotaline (60 mg/kg, s.c.) on Study Day 1. On the twenty-eighth day following monocrotaline dosing, the rats were anesthetized with ketamine/xylazine for terminal monitoring of pulmonary and systemic arterial pressures along with heart rate.
Vehicle (0.5% Methylcellulose+0.2% Tween 80 in deionized water, Cinitapride (0.3 or 0.9 mg/kg total daily dose; Sildenafil (30 mg/kg, administered twice daily)
(§1) Male Sprague-Dawley rats in groups 2 to 5 were administered […] of body weight of Monocrotaline in DMSO subcutaneously to induce PAH on day 1. The DMSO group (Group 1) received a single dose of DMSO subcutaneously on day 1. The vehicle group received 5 ml of vehicle every morning. The cinitapride as well as sildenafil groups were orally administered cinitapride (0.3 or 0.9 mg/kg total daily dose, divided into a BID regimen given every day for 28 days starting on Day 1), or sildenafil (30 mg/kg, administered twice daily). On the twenty-eighth day after monocrotaline dosing, the rats were anesthetized with ketamine/xylazine for terminal monitoring of pulmonary and systemic arterial pressures along with heart rate.

[2] = system: pulmonary arterioles of rats with monocrotaline induced pulmonary arterial hypertension; assay: Monocrotaline rat PAH model: lung histopathology (smooth muscle hypertrophy, muscularization of pulmonary arterioles); type: in vivo, Sprague-Dawley rats; conditions: for mean hypertrophy score (smooth muscle hypertrophy of small arterioles): score 0 (normal) to 4 (marked), monocrotaline+vehicle 2.7
Description: as §1
Later the animals were sacrificed and histopathological evaluation was performed to assess pulmonary arterioles for smooth muscle hypertrophy & muscularization of pulmonary arterioles.
The elastin/eosin stained lung section were examined microscopically and histopathological findings were recorded as smooth muscle hypertrophy of small arterioles and muscularization of pulmonary arterioles. The finding were recorded as 0 (normal), 1 (minimal), 2 (mild), 3 (moderate) or 4 (marked). Scoring smooth muscle hypertrophy in small pulmonary arterioles was based on the thickness of muscular wall & extent of finding (apparent no. of arterioles affected).

[3] = Cinitapride 0.3 mg/kg per day bid, oral
[4] = Cinitapride 0.9 mg/kg per day bid, oral
[5] = Sildenafil 60 mg/kg per day bid, oral

## CCOc1cc(N)c([N+](=O)[O-])cc1C(=O)NC1CCN(CC2CC=CCC2)CC1 (centres unmarked) [Cinitapride]
[1]; 0.9 mg/kg/day cinitapride, after 28 days
  systolic pulmonary arterial pressure compared to the vehicle group: reduction in systolic pulmonary arterial pressure
[1]; [3]
  Body Weight: 0.32 ± 0.02 kg
  HR: 299 ± 17 bpm
  HW/BW: 3.71 ± 0.20
  Heart Weight: 1.17 ± 0.05 g
  LV Weight: 0.68 ± 0.04 g
  Lung Weight: 2.36 ± 0.16 g
  MAP: 77 ± 8 mmHg
  Mean PAP: 43 ± 5 mmHg
  RV Weight: 0.35 ± 0.02 g
  RV/BW: 1.14 ± 0.10
  RV/LV + S (Fulton's Index): 0.53 ± 0.04
  Systolic PAP: 55 ± 8 mmHg
[1]; [4]
  Body Weight: 0.32 ± 0.02 kg
  HR: 295 ± 9 bpm
  HW/BW: 3.52 ± 0.16
  Heart Weight: 1.10 ± 0.05 g
  LV Weight: 0.70 ± 0.03 g
  Lung Weight: 2.30 ± 0.20 g
  MAP: 76 ± 2 mmHg
  Mean PAP: 37 ± 3 mmHg
  RV Weight: 0.31 ± 0.03 g
  RV/BW: 1.01 ± 0.11
  RV/LV + S (Fulton's Index): 0.45 ± 0.04
  Systolic PAP: 45 ± 4 mmHg
[1]; cinitapride 0.3 mg/kg/day
  effect on right ventricular hypertrophy (RV/LV+S, Fulton's Index) compared to vehicle: −10%
[1]; cinitapride 0.9 mg/kg/day
  effect on right ventricular hypertrophy (RV/LV+S, Fulton's Index) compared to vehicle: −25%
[1]; cinitapride 0.9 mg/kg/day given BID, oral
  efficacy at reducing monocrotaline-induced pulmonary hypertension (overall mortality, pulmonary hemodynamics, right ventricular hypertrophy) versus sildenafil: superior to the positive control
[1]; cinitapride highest dose, p<0.05
  decrease in hypertrophy, RV (wt) corrected by body weight: 33%
[1]; rat, in vivo
  activity in controlling or reducing PAH relative to Sildenafil: comparable
[1]; rats treated with cinitapride
  heart rate or mean arterial pressure compared to vehicle: No substantive differences
[2]; 0.45 mg/kg cinitapride twice daily following MCT, vehicle following MCT 52.1%
  completely muscularized arterioles, group mean percentage: 38.2%
[2]; cinitapride 0.15 mg/kg after monocrotaline induction
  vascular smooth muscle hypertrophy compared to control group (FIG. 4): mild vascular smooth muscle hypertrophy
[2]; cinitapride 0.15 mg/kg and 0.45 mg/kg twice daily following Monocrotaline
  presence of smooth muscle hypertrophy in small arterioles: substantially decreased
[2]; cinitapride 0.45 mg/kg after monocrotaline induction
  vascular smooth muscle hypertrophy compared to control group (FIG. 5): mild vascular smooth muscle hypertrophy
[2]; monocrotaline+cinitapride 0.15 bid
  mean hypertrophy score (smooth muscle hypertrophy of small arterioles): 1.9
[2]; monocrotaline+cinitapride 0.45 bid
  mean hypertrophy score (smooth muscle hypertrophy of small arterioles): 2.1

## CCCc1nn(C)c2c(=O)[nH]c(-c3cc(S(=O)(=O)N4CCN(C)CC4)ccc3OCC)nc12 [Sildenafil]
[1]; [5]
  Body Weight: 0.32 ± 0.01 kg
  HR: 278 ± 21 bpm
  HW/BW: 3.89 ± 0.17
  Heart Weight: 1.24 ± 0.02 g
  LV Weight: 0.74 ± 0.02 g
  Lung Weight: 2.36 ± 0.13 g
  MAP: 69 ± 5 mmHg
  Mean PAP: 38 ± 6 mmHg
  RV Weight: 0.38 ± 0.02 g
  RV/BW: 1.19 ± 0.09
  RV/LV + S (Fulton's Index): 0.51 ± 0.03
  Systolic PAP: 46 ± 7 mmHg
[1]; sildenafil
  hypertrophic index (RV wt corrected by body weight): decrease
